Measured values taken from ChEMBL document CHEMBL2417377, “Hit-to-lead optimization and kinase selectivity of imidazo[1,2-a]quinoxalin-4-amine derived JNK1 inhibitors” (Bioorg Med Chem Lett, 2013).

How the values were obtained:
Conditions in all cases: PC-3
[1] = molecular target: Serine/threonine-protein kinase MRCK beta (Homo sapiens) (UniProt Q9Y5S2); test: Inhibition of MRCKbeta in human PC3 cell lysates at 10 uM using desthiobiotin-tagged ATP probe AX9989 followed by trypsinization by LC/MS analysis
[2] = molecular target: Tyrosine-protein kinase Yes (Homo sapiens) (UniProt P07947); test: Inhibition of YES in human PC3 cell lysates at 10 uM using desthiobiotin-tagged ATP probe AX9989 followed by trypsinization by LC/MS analysis
Chain of Tyrosine-protein kinase Yes (Homo sapiens) (P07947 2-543 limits assumed): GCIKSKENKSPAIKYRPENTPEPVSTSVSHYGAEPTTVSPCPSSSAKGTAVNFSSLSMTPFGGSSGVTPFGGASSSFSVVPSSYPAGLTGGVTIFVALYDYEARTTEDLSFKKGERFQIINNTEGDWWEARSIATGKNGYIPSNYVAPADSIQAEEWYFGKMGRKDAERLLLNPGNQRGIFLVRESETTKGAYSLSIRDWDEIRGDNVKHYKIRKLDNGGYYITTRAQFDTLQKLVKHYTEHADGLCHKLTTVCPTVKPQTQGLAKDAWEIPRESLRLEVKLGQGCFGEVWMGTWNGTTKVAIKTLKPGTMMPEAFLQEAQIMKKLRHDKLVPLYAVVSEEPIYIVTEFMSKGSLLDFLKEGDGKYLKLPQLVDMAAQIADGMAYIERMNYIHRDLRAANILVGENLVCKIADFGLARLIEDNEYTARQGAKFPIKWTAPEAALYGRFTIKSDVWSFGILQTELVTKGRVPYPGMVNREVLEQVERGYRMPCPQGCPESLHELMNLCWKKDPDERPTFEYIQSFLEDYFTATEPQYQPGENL

[3] = molecular target: Interferon-induced, double-stranded RNA-activated protein kinase (Homo sapiens) (UniProt P19525); test: Inhibition of PKR in human PC3 cell lysates at 10 uM using desthiobiotin-tagged ATP probe AX9989 followed by trypsinization by LC/MS analysis
Chain of Interferon-induced, double-stranded RNA-activated protein kinase (Homo sapiens) (P19525 whole entry): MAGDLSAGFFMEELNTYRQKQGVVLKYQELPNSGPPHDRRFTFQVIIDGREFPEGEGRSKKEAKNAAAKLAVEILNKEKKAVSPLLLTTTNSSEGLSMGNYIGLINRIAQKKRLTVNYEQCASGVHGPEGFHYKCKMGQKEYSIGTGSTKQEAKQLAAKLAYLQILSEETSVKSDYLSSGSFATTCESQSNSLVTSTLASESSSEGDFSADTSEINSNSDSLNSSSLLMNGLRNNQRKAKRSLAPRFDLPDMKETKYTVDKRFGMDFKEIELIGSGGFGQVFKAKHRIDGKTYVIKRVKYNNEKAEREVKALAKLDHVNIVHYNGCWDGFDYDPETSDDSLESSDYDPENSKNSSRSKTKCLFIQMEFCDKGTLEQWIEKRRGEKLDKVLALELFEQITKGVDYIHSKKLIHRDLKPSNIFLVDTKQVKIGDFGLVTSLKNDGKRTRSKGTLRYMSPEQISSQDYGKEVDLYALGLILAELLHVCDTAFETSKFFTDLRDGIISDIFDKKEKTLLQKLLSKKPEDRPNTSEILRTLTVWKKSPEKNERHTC

[4] = molecular target: Serine/threonine-protein kinase 38-like (Homo sapiens) (UniProt Q9Y2H1); test: Inhibition of NDR2 in human PC3 cell lysates at 10 uM using desthiobiotin-tagged ATP probe AX9989 followed by trypsinization by LC/MS analysis
Chain of Serine/threonine-protein kinase 38-like (Homo sapiens) (Q9Y2H1 2-464 limits assumed): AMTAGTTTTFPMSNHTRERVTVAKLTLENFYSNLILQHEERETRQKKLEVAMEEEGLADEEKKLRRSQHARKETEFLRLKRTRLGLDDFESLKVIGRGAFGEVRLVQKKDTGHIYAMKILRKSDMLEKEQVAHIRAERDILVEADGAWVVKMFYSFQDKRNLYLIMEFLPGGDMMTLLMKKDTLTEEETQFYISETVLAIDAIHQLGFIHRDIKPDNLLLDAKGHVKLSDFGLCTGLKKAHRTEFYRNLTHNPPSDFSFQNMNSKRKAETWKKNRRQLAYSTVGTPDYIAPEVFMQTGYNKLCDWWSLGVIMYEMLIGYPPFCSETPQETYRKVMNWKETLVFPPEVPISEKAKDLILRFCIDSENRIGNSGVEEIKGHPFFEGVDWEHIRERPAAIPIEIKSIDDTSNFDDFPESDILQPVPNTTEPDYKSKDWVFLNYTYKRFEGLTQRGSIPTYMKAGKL

[5] = molecular target: Casein kinase II subunit alpha' (Homo sapiens) (UniProt P19784); test: Inhibition of CK2alpha2 in human PC3 cell lysates at 10 uM using desthiobiotin-tagged ATP probe AX9989 followed by trypsinization by LC/MS analysis
Chain of Casein kinase II subunit alpha' (Homo sapiens) (P19784 whole entry, looked up): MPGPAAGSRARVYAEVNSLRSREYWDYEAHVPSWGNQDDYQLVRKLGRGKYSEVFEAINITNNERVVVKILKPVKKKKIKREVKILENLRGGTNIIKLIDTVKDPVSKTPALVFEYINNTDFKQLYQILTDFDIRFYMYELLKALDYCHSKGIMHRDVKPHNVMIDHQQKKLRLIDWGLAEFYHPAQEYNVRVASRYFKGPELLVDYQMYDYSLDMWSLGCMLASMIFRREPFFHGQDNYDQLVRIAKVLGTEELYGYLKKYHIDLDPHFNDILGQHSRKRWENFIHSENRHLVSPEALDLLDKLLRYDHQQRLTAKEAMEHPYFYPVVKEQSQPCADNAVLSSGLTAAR

[6] = molecular target: Dual specificity mitogen-activated protein kinase kinase 2 (Homo sapiens) (UniProt P36507); test: Inhibition of MAP2K2 in human PC3 cell lysates at 10 uM using desthiobiotin-tagged ATP probe AX9989 followed by trypsinization by LC/MS analysis
[7] = molecular target: Serine/threonine-protein kinase WNK2 (Homo sapiens) (UniProt Q9Y3S1); test: Inhibition of Wnk2 in human PC3 cell lysates at 10 uM using desthiobiotin-tagged ATP probe AX9989 followed by trypsinization by LC/MS analysis
[8] = molecular target: Serine/threonine-protein kinase tousled-like 2 (Homo sapiens) (UniProt Q86UE8); test: Inhibition of TLK2 in human PC3 cell lysates at 10 uM using desthiobiotin-tagged ATP probe AX9989 followed by trypsinization by LC/MS analysis
[9] = molecular target: Glycogen synthase kinase-3 beta (Homo sapiens) (UniProt P49841); test: Inhibition of GSK3beta in human PC3 cell lysates at 10 uM using desthiobiotin-tagged ATP probe AX9989 followed by trypsinization by LC/MS analysis
Chain of Glycogen synthase kinase-3 beta (Homo sapiens) (P49841 whole entry, looked up): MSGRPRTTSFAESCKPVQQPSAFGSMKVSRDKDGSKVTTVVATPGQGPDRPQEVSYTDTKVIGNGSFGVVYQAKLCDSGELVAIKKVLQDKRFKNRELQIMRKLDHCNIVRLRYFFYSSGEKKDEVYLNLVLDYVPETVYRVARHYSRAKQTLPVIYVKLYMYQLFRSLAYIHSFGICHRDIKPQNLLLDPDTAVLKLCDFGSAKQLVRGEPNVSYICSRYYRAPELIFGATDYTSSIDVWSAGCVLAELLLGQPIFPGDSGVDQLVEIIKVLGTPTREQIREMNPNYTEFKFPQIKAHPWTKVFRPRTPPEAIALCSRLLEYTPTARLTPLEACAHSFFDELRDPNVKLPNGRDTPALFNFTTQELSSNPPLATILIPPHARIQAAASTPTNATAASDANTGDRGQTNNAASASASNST

[10] = molecular target: STE20-like serine/threonine-protein kinase (Homo sapiens) (UniProt Q9H2G2); test: Inhibition of SLK in human PC3 cell lysates at 10 uM using desthiobiotin-tagged ATP probe AX9989 followed by trypsinization by LC/MS analysis
[11] = molecular target: Cyclin-dependent kinase 5 (Homo sapiens) (UniProt Q00535); test: Inhibition of CDK5 in human PC3 cell lysates at 10 uM using desthiobiotin-tagged ATP probe AX9989 followed by trypsinization by LC/MS analysis
[12] = molecular target: Cyclin-dependent kinase 9 (Homo sapiens) (UniProt P50750); test: Inhibition of CDK9 in human PC3 cell lysates at 10 uM using desthiobiotin-tagged ATP probe AX9989 followed by trypsinization by LC/MS analysis
Chain of Cyclin-dependent kinase 9 (Homo sapiens) (P50750 whole entry): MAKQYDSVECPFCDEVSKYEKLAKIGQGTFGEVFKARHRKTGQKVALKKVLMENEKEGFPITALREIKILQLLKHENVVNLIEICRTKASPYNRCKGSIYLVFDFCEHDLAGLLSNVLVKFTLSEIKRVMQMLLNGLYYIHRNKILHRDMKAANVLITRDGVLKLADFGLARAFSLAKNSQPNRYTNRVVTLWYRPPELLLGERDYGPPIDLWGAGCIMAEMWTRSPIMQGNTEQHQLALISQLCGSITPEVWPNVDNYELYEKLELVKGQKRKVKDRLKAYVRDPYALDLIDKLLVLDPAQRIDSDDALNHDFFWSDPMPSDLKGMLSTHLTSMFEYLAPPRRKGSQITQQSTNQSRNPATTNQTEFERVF

[13] = molecular target: CaM kinase II (Homo sapiens) (UniProt Q13557+Q13555+Q13554+Q9UQM7); test: Inhibition of CaMK2alpha/CaMK2beta/CaMK2delta/CaMK2gamma in human PC3 cell lysates at 10 uM using desthiobiotin-tagged ATP probe AX9989 followed by trypsinization by LC/MS analysis; assay type: protein assay
[14] = Inhibition of PITSLRE in human PC3 cell lysates at 10 uM using desthiobiotin-tagged ATP probe AX9989 followed by trypsinization by LC/MS analysis; assay type: cell-free
[15] = molecular target: T1, Scaffold protein ILK (Homo sapiens) (UniProt Q13418); test: Inhibition of ILK in human PC3 cell lysates at 10 uM using desthiobiotin-tagged ATP probe AX9989 followed by trypsinization by LC/MS analysis
T1 sequence (whole entry): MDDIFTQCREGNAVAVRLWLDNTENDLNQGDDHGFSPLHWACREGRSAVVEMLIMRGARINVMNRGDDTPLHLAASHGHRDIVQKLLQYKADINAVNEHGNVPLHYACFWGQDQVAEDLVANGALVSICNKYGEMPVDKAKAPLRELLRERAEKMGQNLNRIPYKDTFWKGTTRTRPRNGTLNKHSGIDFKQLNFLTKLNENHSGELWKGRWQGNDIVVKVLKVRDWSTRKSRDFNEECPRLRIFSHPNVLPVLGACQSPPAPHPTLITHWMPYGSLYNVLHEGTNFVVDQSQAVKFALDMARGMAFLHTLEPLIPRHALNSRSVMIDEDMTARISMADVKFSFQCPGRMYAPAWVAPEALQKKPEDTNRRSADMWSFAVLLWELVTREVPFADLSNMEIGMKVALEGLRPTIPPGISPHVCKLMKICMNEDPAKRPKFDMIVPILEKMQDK

[16] = molecular target: Serine/threonine-protein kinase 16 (Homo sapiens) (UniProt O75716); test: Inhibition of MPSK1 in human PC3 cell lysates at 10 uM using desthiobiotin-tagged ATP probe AX9989 followed by trypsinization by LC/MS analysis
Chain of Serine/threonine-protein kinase 16 (Homo sapiens) (O75716 whole entry): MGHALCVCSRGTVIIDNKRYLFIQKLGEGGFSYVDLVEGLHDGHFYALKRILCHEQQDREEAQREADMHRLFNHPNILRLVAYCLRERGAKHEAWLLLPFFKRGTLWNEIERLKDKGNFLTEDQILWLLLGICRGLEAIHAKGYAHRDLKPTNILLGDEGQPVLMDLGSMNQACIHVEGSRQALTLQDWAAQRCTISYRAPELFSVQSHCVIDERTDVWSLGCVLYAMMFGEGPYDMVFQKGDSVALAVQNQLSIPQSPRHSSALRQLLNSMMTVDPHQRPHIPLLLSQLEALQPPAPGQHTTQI

[17] = molecular target: Focal adhesion kinase 1 (Homo sapiens) (UniProt Q05397); test: Inhibition of FAK in human PC3 cell lysates at 10 uM using desthiobiotin-tagged ATP probe AX9989 followed by trypsinization by LC/MS analysis
Chain of Focal adhesion kinase 1 (Homo sapiens) (Q05397 2-1052 limits assumed): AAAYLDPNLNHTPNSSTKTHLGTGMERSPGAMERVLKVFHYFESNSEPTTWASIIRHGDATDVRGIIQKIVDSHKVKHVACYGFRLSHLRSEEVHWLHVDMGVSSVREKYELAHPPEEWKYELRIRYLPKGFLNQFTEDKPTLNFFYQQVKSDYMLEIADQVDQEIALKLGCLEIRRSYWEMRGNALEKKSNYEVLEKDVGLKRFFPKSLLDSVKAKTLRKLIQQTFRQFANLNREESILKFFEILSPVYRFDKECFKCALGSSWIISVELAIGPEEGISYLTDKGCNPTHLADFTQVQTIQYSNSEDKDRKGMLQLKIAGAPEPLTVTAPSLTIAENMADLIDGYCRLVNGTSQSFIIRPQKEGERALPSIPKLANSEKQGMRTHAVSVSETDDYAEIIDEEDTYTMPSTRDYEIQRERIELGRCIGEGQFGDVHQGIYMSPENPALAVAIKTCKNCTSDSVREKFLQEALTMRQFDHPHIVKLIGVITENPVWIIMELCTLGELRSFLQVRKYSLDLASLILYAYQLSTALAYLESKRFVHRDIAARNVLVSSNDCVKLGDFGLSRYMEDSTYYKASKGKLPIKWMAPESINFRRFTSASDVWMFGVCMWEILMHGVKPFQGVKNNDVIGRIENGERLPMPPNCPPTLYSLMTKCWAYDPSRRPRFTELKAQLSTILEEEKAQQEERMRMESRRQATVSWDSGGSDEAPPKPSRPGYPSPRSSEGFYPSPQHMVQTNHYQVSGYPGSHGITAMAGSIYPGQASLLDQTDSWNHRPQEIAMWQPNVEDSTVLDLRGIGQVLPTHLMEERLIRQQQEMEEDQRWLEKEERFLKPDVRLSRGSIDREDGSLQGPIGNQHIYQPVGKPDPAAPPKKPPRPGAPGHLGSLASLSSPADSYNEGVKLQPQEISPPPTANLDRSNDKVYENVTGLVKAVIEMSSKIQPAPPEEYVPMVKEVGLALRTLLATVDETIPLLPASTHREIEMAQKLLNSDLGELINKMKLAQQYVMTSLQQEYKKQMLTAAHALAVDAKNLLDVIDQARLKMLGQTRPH

[18] = molecular target: SRSF protein kinase 1 (Homo sapiens) (UniProt Q96SB4); test: Inhibition of SRPK1 in human PC3 cell lysates at 10 uM using desthiobiotin-tagged ATP probe AX9989 followed by trypsinization by LC/MS analysis
Chain of SRSF protein kinase 1 (Homo sapiens) (Q96SB4 whole entry): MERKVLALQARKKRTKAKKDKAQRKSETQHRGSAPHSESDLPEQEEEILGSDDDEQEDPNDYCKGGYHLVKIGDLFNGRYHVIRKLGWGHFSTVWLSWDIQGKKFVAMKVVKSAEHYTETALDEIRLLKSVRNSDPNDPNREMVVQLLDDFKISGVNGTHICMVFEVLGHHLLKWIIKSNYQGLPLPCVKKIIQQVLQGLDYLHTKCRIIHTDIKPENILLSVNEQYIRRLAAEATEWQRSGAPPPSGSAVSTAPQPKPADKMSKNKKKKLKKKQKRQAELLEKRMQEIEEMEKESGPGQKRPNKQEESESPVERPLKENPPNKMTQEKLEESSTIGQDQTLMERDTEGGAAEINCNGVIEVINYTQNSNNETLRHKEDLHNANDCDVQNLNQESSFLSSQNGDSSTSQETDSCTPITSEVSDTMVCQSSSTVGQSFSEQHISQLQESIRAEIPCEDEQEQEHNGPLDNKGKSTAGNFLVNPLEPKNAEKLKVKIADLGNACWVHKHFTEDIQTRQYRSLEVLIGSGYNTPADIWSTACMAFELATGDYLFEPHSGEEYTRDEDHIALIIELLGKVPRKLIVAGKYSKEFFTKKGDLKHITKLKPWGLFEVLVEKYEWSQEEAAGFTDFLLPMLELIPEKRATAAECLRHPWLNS

[19] = molecular target: SRSF protein kinase 2 (Homo sapiens) (UniProt P78362); test: Inhibition of SRPK2 in human PC3 cell lysates at 10 uM using desthiobiotin-tagged ATP probe AX9989 followed by trypsinization by LC/MS analysis

| inhibition [1] [%] | inhibition [2] [%] | inhibition [3] [%] | inhibition [4] [%] | inhibition [5] [%] | inhibition [6] [%] | inhibition [7] [%] | inhibition [8] [%] | inhibition [9] [%] | inhibition [10] [%] | inhibition [11] [%] | inhibition [12] [%] | inhibition [13] [%] | inhibition [15] [%] | inhibition [16] [%] | inhibition [17] [%] | inhibition [18] [%] | inhibition [19] [%] | Structure (SMILES) | inhibition [14] [%] |
| --- | --- | --- | --- | --- | --- | --- | --- | --- | --- | --- | --- | --- | --- | --- | --- | --- | --- | --- | --- |
| < 35 | < 35 | < 35 | < 35 | < 35 | < 35 | < 35 | < 35 | < 35 | < 35 | < 35 | < 35 | < 35 | < 35 | < 35 | < 35 | < 35 | < 35 | O=C(N[C@H](CO)c1ccccc1)c1ccc2nc(N[C@H]3CC[C@H](O)CC3)c3nccn3c2c1 | < 35 |
| < 35 | < 35 | < 35 | < 35 | < 35 | < 35 | < 35 | < 35 | < 35 | < 35 | < 35 | < 35 | < 35 | < 35 | < 35 | < 35 | < 35 | < 35 | CC(C)(NC(=O)c1ccc2nc(N[C@H]3CC[C@H](O)CC3)c3nccn3c2c1)c1ccccc1 | < 35 |
| < 35 | < 35 | < 35 | < 35 | < 35 | < 35 | < 35 | < 35 | 96 | < 35 | < 35 | 98.6 | < 35 | < 35 | 39.1 | < 35 | < 35 | < 35 | NC(=O)c1ccc2nc(N[C@H]3CC[C@H](O)CC3)c3nccn3c2c1 | 95.6 |
| < 35 | < 35 | < 35 | < 35 | < 35 | < 35 | < 35 | < 35 | < 35 | < 35 | < 35 | < 35 | < 35 | < 35 | < 35 | < 35 | < 35 | < 35 | CCC[C@@H](NC(=O)c1ccc2nc(N[C@H]3CC[C@H](O)CC3)c3nccn3c2c1)c1ccccc1 | < 35 |
| < 35 | < 35 | < 35 | < 35 | < 35 | < 35 | < 35 | < 35 | < 35 | < 35 | < 35 | 42 | < 35 | < 35 | < 35 | < 35 | < 35 | < 35 | C[C@@H](NC(=O)c1ccc2nc(N[C@H]3CC[C@H](O)CC3)c3nccn3c2c1)c1ccccc1 | < 35 |
| < 35 | < 35 | < 35 | < 35 | < 35 | < 35 | < 35 | < 35 | < 35 | < 35 | < 35 | < 35 | < 35 | < 35 | < 35 | < 35 | < 35 | < 35 | O=C(NC1(c2ccccc2)CC1)c1ccc2nc(N[C@H]3CC[C@H](O)CC3)c3nccn3c2c1 | < 35 |
| < 35 | < 35 | < 35 | < 35 | < 35 | < 35 | < 35 | < 35 | < 35 | < 35 | < 35 | < 35 | 46.9 | < 35 | < 35 | < 35 | < 35 | < 35 | CC[C@@H](NC(=O)c1ccc2nc(N[C@H]3CC[C@H](O)CC3)c3nccn3c2c1)c1ccccc1 | < 35 |
| < 35 | < 35 | < 35 | < 35 | < 35 | < 35 | < 35 | < 35 | < 35 | < 35 | < 35 | < 35 | < 35 | < 35 | < 35 | < 35 | < 35 | < 35 | O=C(NC1(Cc2ccc(F)cc2)CC1)c1ccc2nc(N[C@H]3CC[C@H](O)CC3)c3nccn3c2c1 | < 35 |
| < 35 | < 35 | < 35 | < 35 | < 35 | < 35 | < 35 | < 35 | < 35 | < 35 | < 35 | < 35 | < 35 | < 35 | < 35 | < 35 | < 35 | < 35 | C[C@H](NC(=O)c1ccc2nc(N[C@H]3CC[C@H](O)CC3)c3nccn3c2c1)c1ccccc1 | < 35 |
| < 35 | < 35 | < 35 | < 35 | < 35 | < 35 | < 35 | < 35 | < 35 | < 35 | < 35 | 49.8 | < 35 | < 35 | < 35 | < 35 | < 35 | < 35 | O=C(NC1(c2ccccc2)CCC1)c1ccc2nc(N[C@H]3CC[C@H](O)CC3)c3nccn3c2c1 | < 35 |
